From US8044073B2, “Aminobenzimidazoles and benzimidazoles as inhibitors of respiratory syncytial virus replication” (Tibotec Pharmaceuticals, priority 2003, dated 2011)
Where two headings read alike, the source gives them in different places.

What was measured:
[1] = test system: Respiratory Syncytial Virus; experiment: In vitro screening for activity against RSV (tetrazolium-based colorimetric assay, protection against viral cytopathology); type: cell-based; details: human respiratory syncytial virus, read-out: Activity (converted)
Summary of the method: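 HeLa cells in Eagle's Basal Medium with 5% FCS and 20 mM Hepes, ~100 TCID50 RSV, five five-fold compound dilutions in triplicate with mock-infected row for cytotoxicity; 7 days at 37 °C, 5% CO2. MTT formazan read at 540 minus 690 nm; EC50 and CC50 from dose-response curves, SI = CC50/EC50.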

[2] = 168 h, Table 5a, RSV in HeLa cells, MTT, seven days after infection, pEC50 = -log of EC50 in molar units
[3] = 168 h, Table 5b, RSV in HeLa cells, MTT, seven days after infection, pEC50 = -log of EC50 in molar units
[4] = Table 6, numeric activity values, pEC50 (−log of EC50 in molar units)

melting point [°C]	Structure (SMILES)	further results
165	Cc1cccc(N(CCC(=O)O)Cc2ccc3nc(N)n(Cc4nc(C)ccc4O)c3c2)c1 [Compound 161, 3-{[2-amino-3-(3-hydroxy-6-methyl-pyridin-2-ylmethyl)-3H-benzoimidazol-5-ylmethyl]-m-tolyl-amino}-propionic acid]	EC50 ([1]; 168 h, Table 3, RSV in HeLa cells, MTT, seven days after infection, pEC50 = -log of EC50 in molar units): 7.94 nM
> 250	Cc1ccc(O)c(Cn2c(N)nc3ccc(Cn4c(=O)n(C5CC5)c5ccncc54)cc32)n1 [Compound 183]	EC50 ([1]; 168 h, Table 3b, RSV in HeLa cells, MTT, seven days after infection, pEC50 = -log of EC50 in molar units): 39.8 nM
252	Cc1cccc(NCc2cc(C)c3nc(N)n(Cc4nc(C)ccc4O)c3c2)c1 [Compound 194, 2-[2-amino-4-methyl-6-(m-tolylamino-methyl)-benzoimidazol-1-ylmethyl]-6-methyl-pyridin-3-ol]	EC50 [1, 2]: 12.6 nM
204	CNc1nc2ccc(CN(CCO)c3cccc(C)c3)cc2n1Cc1nc(C)ccc1O [Compound 195, 2-(6-{[(2-hydroxy-ethyl)-m-tolyl-amino]-methyl}-2-methylamino-benzoimidazol-1-ylmethyl)-6-methyl-pyridin-3-ol]	EC50 [1, 2]: 15.8 nM
191	Cc1cccc(N(CCCO)Cc2ccc3nc(N)n(Cc4cccc5cccnc45)c3c2)c1 [Compound 205, 3-[(2-amino-3-quinolin-8-ylmethyl-3H-benzoimidazol-5-ylmethyl)-m-tolyl-amino]-propan-1-ol]	EC50 [1, 3]: 50.1 nM
> 260	Nc1nc2cc(CO)ccc2n1Cc1cccc2cccnc12 [Compound 224, (2-amino-1-quinolin-8-ylmethyl-1H-benzoimidazol-5-yl)-methanol]	EC50 [1, 3]: > 100000 nM
248	Cc1ccc(O)c(Cn2cnc3cc(N)ccc32)n1 [Compound 259]	EC50 [1, 4]: > 100000 nM
> 250	Cc1ccc(O)c(Cn2cnc3ccc(N)cc32)n1 [Compound 261]	EC50 [1, 4]: > 100000 nM
